Laboratory results taken from patent US11083196B2, “Microbiocidal oxadiazole derivatives” (SYNGENTA PARTICIPATIONS AG, priority 2016, dated 2021).

Experiments:
[1] = tested on: Puccinia recondita f. sp. tritici; assay: Fungicidal activity against Puccinia recondita f. sp. tritici / wheat / leaf disc preventative (brown rust); assay type: in vivo; conditions: foliar, 168 h, wheat leaf segments cv. Kanzler, inoculated 1 day after application, assessed 7-9 days after application, compared to untreated control
Protocol: Leaf disks or leaf segments of various plant species are cut from plants grown in a greenhouse. The cut leaf disks or segments are placed in multiwell plates (24-well format) onto water agar. The leaf disks are sprayed with a test solution before (preventative) or after (curative) inoculation. Compounds to be tested are prepared as DMSO solutions (max. 10 mg/ml) which are diluted to the appropriate concentration with 0.025% Tween20 just before spraying. The inoculated leaf disks or segments are incubated under defined conditions (temperature, relative humidity, light, etc.) according to the respective test system. A single evaluation of disease level is carried out 3 to 14 days after inoculation, depending on the pathosystem. Percent disease control relative to the untreated check leaf disks or segments is then calculated. Wheat leaf segments cv. Kanzler are placed on agar in multiwell plates (24-well format) and sprayed with the formulated test compound diluted in water. The leaf disks are inoculated with a spore suspension of the fungus 1 day after application. The inoculated leaf segments are incubated at 19° C. and 75% rh under a light regime of 12 h light/12 h darkness in a climate cabinet and the activity of a compound is assessed as percent disease control compared to untreated when an appropriate level of disease damage appears in untreated check leaf segments (7-9 days after application).

[2] = tested on: Glomerella lagenarium (Colletotrichum lagenarium); assay: Fungicidal activity against Glomerella lagenarium (Colletotrichum lagenarium), liquid culture / cucumber / preventative (anthracnose); assay type: cell-based; conditions: Colletotrichum orbiculare, liquid culture (PDB), growth inhibition measured photometrically 3-4 days after application, compared to untreated control
Protocol: Mycelia fragments or conidia suspensions of a fungus, prepared either freshly from liquid cultures of the fungus or from cryogenic storage, are directly mixed into nutrient broth. DMSO solutions of the test compound (max. 10 mg/ml) is diluted with 0.025% Tween20 by a factor of 50 and 10 μl of this solution is pipetted into a microtiter plate (96-well format). The nutrient broth containing the fungal spores/mycelia fragments is then added to give an end concentration of the tested compound. The test plates are incubated in the dark at 24° C. and 96% relative humidity. The inhibition of fungal growth is determined photometrically after 2 to 7 days, depending on the pathosystem, and percent antifungal activity relative to the untreated check is calculated. Conidia of the fungus from cryogenic storage are directly mixed into nutrient broth (PDB potato dextrose broth). After placing a (DMSO) solution of test compound into a microtiter plate (96-well format), the nutrient broth containing the fungal spores is added. The test plates are incubated at 24° C. and the inhibition of growth is measured photometrically 3-4 days after application.

SMILES | melting point | pest or weed control at 200 ppm [1] | inhibition of growth at 20 ppm [2]
O=C(Nc1ccc(-c2ccc(-c3noc(C(F)(F)F)n3)cc2)cn1)C1CC1 [Compound D-11, N-[5-[4-[5-(trifluoromethyl)-1,2,4-oxadiazol-3-yl]phenyl]-2-pyridyl]cyclopropane carboxamide] | 175 to 180 °C | – | –
Cl.FC(F)(F)c1nc(-c2ccc(C3CCCN3)cc2)no1 (stereo not drawn) [Compound A-34, 3-(4-pyrrolidin-1-ium-2-ylphenyl)-5-(trifluoromethyl)-1,2,4-oxadiazole; chloride] | 154.4 to 158.5 °C | ≥ 80% | –
FC(F)(F)c1nc(-c2ccc(N3CCCCO3)cc2)no1 [Compound B-1, 2-[4-[5-(trifluoromethyl)-1,2,4-oxadiazol-3-yl]phenyl]oxazinane] | 94 to 96 °C | – | –
CCNC(=O)Nc1ccc(-c2ccc(-c3noc(C(F)(F)F)n3)cc2)cn1 [Compound D-2, 1-ethyl-3-[5-[4-[5-(trifluoromethyl)-1,2,4-oxadiazol-3-yl]phenyl]-2-pyridyl]urea] | 190 to 195 °C | – | –
O=C(C1CC1)N(C(=O)C1CC1)c1cc(-c2ccc(-c3noc(C(F)(F)F)n3)cc2)ccn1 [Compound D-16, N-(cyclopropanecarbonyl)-N-[4-[4-[5-(trifluoromethyl)-1,2,4-oxadiazol-3-yl]phenyl]-2-pyridyl]cyclopropane carboxamide] | 120 to 125 °C | – | –
O=C(C1CC1)N(C(=O)C1CC1)c1ccc(-c2ccc(-c3noc(C(F)(F)F)n3)cc2)cn1 [Compound D-10, N-(cyclopropanecarbonyl)-N-[5-[4-[5-(trifluoromethyl)-1,2,4-oxadiazol-3-yl]phenyl]-2-pyridyl]cyclopropane carboxamide] | 150 to 155 °C | – | –
FC(F)(F)c1nc(-c2ccc(C3CC(C4CCCCC4)=NO3)cc2)no1 (stereo not drawn) [Compound A-7, 3-[4-(3-cyclohexyl-4,5-dihydroisoxazol-5-yl)phenyl]-5-(trifluoromethyl)-1,2,4-oxadiazole] | 79 to 82 °C | – | ≥ 80%
FC(F)(F)c1nc(-c2ccc(C3CC(c4ccccc4)=NO3)cc2)no1 (stereo not drawn) [Compound A-50, 3-[4-(3-phenyl-4,5-dihydroisoxazol-5-yl)phenyl]-5-(trifluoromethyl)-1,2,4-oxadiazole] | 139 to 142 °C | – | –
O=C(Nc1cccc(-c2ccc(-c3noc(C(F)(F)F)n3)cc2)n1)C1CC1 [Compound D-14, N-[6-[4-[5-(trifluoromethyl)-1,2,4-oxadiazol-3-yl]phenyl]-2-pyridyl]cyclopropane carboxamide] | 125 to 130 °C | – | –
CCNC(=O)Nc1cccc(-c2ccc(-c3noc(C(F)(F)F)n3)cc2)n1 [Compound D-1, 1-ethyl-3-[6-[4-[5-(trifluoromethyl)-1,2,4-oxadiazol-3-yl]phenyl]-2-pyridyl]urea] | 200 to 205 °C | – | –
CCNc1ccc(-c2ccc(-c3noc(C(F)(F)F)n3)cc2)cn1 [Compound D-20, N-ethyl-5-[4-[5-(trifluoromethyl)-1,2,4-oxadiazol-3-yl]phenyl]pyridin-2-amine] | 120 to 125 °C | – | –
O=C(Nc1cccc(-c2ccc(-c3noc(C(F)(F)F)n3)cc2)n1)C(F)(F)F [Compound D-4, 2,2,2-trifluoro-N-[6-[4-[5-(trifluoromethyl)-1,2,4-oxadiazol-3-yl]phenyl]-2-pyridyl]acetamide] | 125 to 130 °C | – | ≥ 80%
FC(F)(F)C1=NOC(c2ccc(-c3noc(C(F)(F)F)n3)cc2)C1 (stereo not drawn) [Compound A-14, 5-(trifluoromethyl)-3-[4-[3-(trifluoromethyl)-4,5-dihydroisoxazol-5-yl]phenyl]-1,2,4-oxadiazole] | 65 to 69 °C | – | ≥ 80%
FC(F)(F)c1nc(-c2ccc(-c3cccc(N4CCOCC4)n3)cc2)no1 [Compound D-24, 4-[6-[4-[5-(trifluoromethyl)-1,2,4-oxadiazol-3-yl]phenyl]-2-pyridyl]morpholine] | 100 to 105 °C | – | –
FC(F)(F)c1nc(-c2ccc(-c3ccnc(N4CCOCC4)c3)cc2)no1 [Compound D-25, 4-[4-[4-[5-(trifluoromethyl)-1,2,4-oxadiazol-3-yl]phenyl]-2-pyridyl]morpholine] | 95 to 100 °C | – | ≥ 80%
FC(F)(F)c1nc(-c2ccc(-c3cccc(Cl)n3)cc2)no1 [Compound D-22, 3-[4-(6-chloro-2-pyridyl)phenyl]-5-(trifluoromethyl)-1,2,4-oxadiazole] | 115 to 120 °C | – | –

SMILES | melting point | pest or weed control at 200 ppm [1] | inhibition of growth at 20 ppm [2]
COc1ccccc1C1CC(c2ccc(-c3noc(C(F)(F)F)n3)cc2)=NO1 (stereo not drawn) [Compound A-48, 3-[4-[5-(2-methoxyphenyl)-4,5-dihydroisoxazol-3-yl]phenyl]-5-(trifluoromethyl)-1,2,4-oxadiazole] | – | – | ≥ 80%
CCNc1cccc(-c2ccc(-c3noc(C(F)(F)F)n3)cc2)n1 [Compound D-8, N-ethyl-6-[4-[5-(trifluoromethyl)-1,2,4-oxadiazol-3-yl]phenyl]pyridin-2-amine] | 120 to 125 °C | – | ≥ 80%
CCNc1cc(-c2ccc(-c3noc(C(F)(F)F)n3)cc2)ccn1 [Compound D-9, N-ethyl-4-[4-[5-(trifluoromethyl)-1,2,4-oxadiazol-3-yl]phenyl]pyridin-2-amine] | 130 to 135 °C | – | –
FC(F)(F)c1nc(-c2ccc(-c3nc(-c4cccnc4)cs3)cc2)no1 [Compound C-12, 3-[4-[4-(3-pyridyl)thiazol-2-yl]phenyl]-5-(trifluoromethyl)-1,2,4-oxadiazole] | 142 to 143 °C | – | –
FC(F)(F)c1nc(-c2ccc(-c3cc(C4CC4)no3)cc2)no1 [Compound C-10, 3-[4-(3-cyclopropylisoxazol-5-yl)phenyl]-5-(trifluoromethyl)-1,2,4-oxadiazole] | 143 to 146 °C | – | –
FC(F)(F)c1nc(-c2ccc(-c3ccc(N4CCOCC4)nc3)cc2)no1 [Compound D-23, 4-[5-[4-[5-(trifluoromethyl)-1,2,4-oxadiazol-3-yl]phenyl]-2-pyridyl]morpholine] | 150 to 155 °C | – | –
CCNC(=O)Nc1cc(-c2ccc(-c3noc(C(F)(F)F)n3)cc2)ccn1 [Compound D-3, 1-ethyl-3-[4-[4-[5-(trifluoromethyl)-1,2,4-oxadiazol-3-yl]phenyl]-2-pyridyl]urea] | 180 to 185 °C | – | –
FC(F)(F)c1nc(-c2ccc(-c3ccc(Cl)nc3)cc2)no1 [Compound D-27, 3-[4-(6-chloro-3-pyridyl)phenyl]-5-(trifluoromethyl)-1,2,4-oxadiazole] | 140 to 145 °C | – | –
Fc1cccc(-c2ccc(-c3noc(C(F)(F)F)n3)cc2)n1 [Compound D-5, 3-[4-(6-fluoro-2-pyridyl)phenyl]-5-(trifluoromethyl)-1,2,4-oxadiazole] | 75 to 80 °C | – | ≥ 80%
COC(=O)C1(c2ccc(-c3noc(C(F)(F)F)n3)cc2)C(C)=C(C#N)C(=O)N1C (stereo not drawn) [Compound A-41, methyl 4-cyano-1,3-dimethyl-5-oxo-2-[4-[5-(trifluoromethyl)-1,2,4-oxadiazol-3-yl]phenyl]pyrrole-2-carboxylate] | – | – | ≥ 80%
O=C(Nc1cc(-c2ccc(-c3noc(C(F)(F)F)n3)cc2)ccn1)C1CC1 [Compound D-17, N-[4-[4-(5-(triftuoromethyl)-1,2,4-oxadiazol-3-yl]phenyl]-2-pyridyl]cyclopropane carboxamide] | 140 to 145 °C | – | –
Nc1cc(-c2ccc(-c3noc(C(F)(F)F)n3)cc2)ccn1 [Compound D-18, 4-[4-[5-(trifluoromethyl)-1,2,4-oxadiazol-3-yl]phenyl]pyridin-2-amine] | 195 to 200 °C | – | –
O=C(Nc1ccc(-c2ccc(-c3noc(C(F)(F)F)n3)cc2)cn1)C(F)(F)F [Compound D-13, 2,2,2-trifluoro-N-[5-[4-[5-(trifluoromethyl)-1,2,4-oxadiazol-3-yl]phenyl]-2-pyridyl]acetamide] | 135 to 140 °C | – | ≥ 80%
FC(F)(F)c1nc(-c2ccc(-c3ccc(NC4CC4)nc3)cc2)no1 [Compound D-21, N-cyclopropyl-5-[4-[5-(trifluoromethyl)-1,2,4-oxadiazol-3-yl]phenyl]pyridin-2-amine] | 135 to 140 °C | – | –
FC(F)(F)c1nc(-c2ccc(C3CC(c4ccncc4)=NO3)cc2)no1 (stereo not drawn) [Compound A-49, 3-[4-[3-(4-pyridyl)-4,5-dihydroisoxazol-5-yl]phenyl]-5-(trifluoromethyl)-1,2,4-oxadiazole] | – | – | ≥ 80%
